Laboratory results: US20080242688A1, “Method 741” (ASTRAZENECA AB, priority 2007, published 2008)
Values joined by “and” are separate entries in the source; they are usually repeats but may differ in a detail not shown here. Identical values can stand only once.

What was measured:
[1] = Cardiovascular effects in telemetered rats; assay type: in vivo, rat; conditions: plasma, rat
Experimental: (§1) Effects of single oral doses of AZD0328 on mean, systolic and diastolic arterial blood pressures, heart rate, body temperature, locomotor activity and respiratory parameters were evaluated in rats by combining whole body plethysmography with telemetry (Table 3). […] The degree of hypertension, however, was similar at the 3 highest doses, which partly can be explained by the high individual variation in plasma exposure at each dose level. The effect on heart rate was, on the other hand, dose-related.

rats = experiment: Cardiovascular effects in telemetered rats; assay type: in vivo, rat
Experimental: as §1

Multiple dose PK/TK, rat = assay type: in vivo
Excerpt: This section provides a summary of the pharmacokinetic and metabolism properties of AZD0328 derived from in vivo studies. […] The derived PK/TK parameters from these studies are presented in Table 4 for single dose studies (DMR4, 0619LR, 20030191PCR, DMO16, DMB10, DMW12, 50190, 0190DD and 03.330/1), and are presented in Table 5 multiple dose PK/TK studies (DMR4, 0612AR, DMB15, 50190, 0190DD and 0295AD).

α7 receptor = α7 receptor (Rattus norvegicus, UniProt Q05941); experiment: FFX hippocampal slice fEPSP, LTP; assay type: cell-based; conditions: 10 μM
Excerpt: In membranes prepared either from cultured, human recombinant α7 receptor-expressing, human embryonic kidney cells α7-HEK) or from rat brain hippocampus, AZD0328 competed with binding of an iodinated form of the high-affinity, selective α7 receptor antagonist snake toxin, [^125I]-α-bungarotoxin (BTX) (Table 1). In Xenopus oocytes injected with human, recombinant α7 receptor mRNA, AZD0328 activates whole cell currents (Table 2). […] In acutely dissociated rat hippocampal interneurons, AZD0328 elicits rapidly activated, desensitizing whole-cell current (Table 1), consistent with the known properties of rat neuronal α7 receptors. […] AZD0328 modulates synaptic function, consistent with the well-known role of α7 receptors as heteroreceptor modulators of glutamatergic and GABAergic synaptic function.

Pgp transporter = target: T1, Pgp transporter (Homo sapiens, UniProt P08183); experiment: Digoxin transport, cell-based assay; assay type: in vitro ADME
T1 construct: host or cells: unnamed cells
Excerpt: The 50% bioavailability of AZD0328 in human was conservatively selected based on the observations from rat, dog and monkey.

rhesus monkeys = experiment: Spatial delayed response (SDR) task; assay type: in vivo, rhesus monkey
Excerpt: AZD0328 at low doses improved performance in the spatial delayed response test in monkeys. Rhesus monkeys were trained in a spatial delayed response task. In this task, food-motivated monkeys observed one of several spatially-displaced wells being baited with a food reward. After a brief delay during which a shutter is drawn and the wells are covered, the monkey must indicate the position of the baited well to receive the food reward. The performance of groups of monkeys was titrated into a narrow range by changing the number of wells or the duration of the delay. Monkeys were tested extensively to establish baseline performance before being administered drug or vehicle. Intramuscular administration of 0.00048 or 0.0016 mg/kg AZD0328 evoked a sustained increase in the percentage of correct responses monkeys made when compared with responses of vehicle-treated monkeys. […] Higher doses (≧0.016 mg/kg or higher) and lower doses (≦0.00016 mg/kg) had either no effect on monkeys or transiently impaired their performance of the task.
Rhesus monkey were trained in a spatial delayed response task. Middle doses of AZD0328 (0.0016 and 0.00048 mg/kg im) evoked a sustained improvement in rhesus monkey performance, while a higher dose (0.48 mg/kg) and a lower dose (0.000016 mg/kg) transiently impaired performance of the task (Table 2).

FFX Sprague Dawley rats = experiment: Hippocampal long-term potentiation in vivo; set-up: species or system rat; conditions: 0.3 mg/kg
Experimental: AZD0328 reversed a deficit in hippocampal long-term potentiation (LTP) in FFX Sprague Dawley rats (Table 2). […] 0.3 mg/kg of AZD0328 was ineffective in this test.

[2] = both sexes, rat, in vivo, po, 2.16 mg/kg, rat 1F+1M, DMR4, 2.16 mg/kg (10 μmol/kg), day 1
[3] = both sexes, rat, in vivo, po, 2.16 mg/kg, rat 1F+1M, DMR4, 2.16 mg/kg (10 μmol/kg), day 7
[4] = female, rat, in vivo, po, 2.16 mg/kg, rat 4F, 0612AR, 2.16 mg/kg (10 μmol/kg), day 1
[5] = female, rat, in vivo, po, 2.16 mg/kg, rat 4F, 0612AR, 2.16 mg/kg (10 μmol/kg), day 30
[6] = female, rat, in vivo, po, 15.1 mg/kg, rat 4F, 0612AR, 15.1 mg/kg (70 μmol/kg), day 1
[7] = female, rat, in vivo, po, 15.1 mg/kg, rat 4F, 0612AR, 15.1 mg/kg (70 μmol/kg), day 30
[8] = female, rat, in vivo, po, 64.9 mg/kg, rat 4F, 0612AR, 64.9 mg/kg (300 μmol/kg), day 1
[9] = female, rat, in vivo, po, 64.9 mg/kg, rat 4F, 0612AR, 64.9 mg/kg (300 μmol/kg), day 30
[10] = male, rat, in vivo, po, 2.16 mg/kg, rat 4M, 062AR, 2.16 mg/kg (10 μmol/kg), day 30
[11] = male, rat, in vivo, po, 2.16 mg/kg, rat 4M, 0612AR, 2.16 mg/kg (10 μmol/kg), day 1
[12] = male, rat, in vivo, po, 15.1 mg/kg, rat 4M, 0612AR, 15.1 mg/kg (70 μmol/kg), day 1
[13] = male, rat, in vivo, po, 15.1 mg/kg, rat 4M, 0612AR, 15.1 mg/kg (70 μmol/kg), day 30
[14] = male, rat, in vivo, po, 64.9 mg/kg, rat 4M, 0612AR, 64.9 mg/kg (300 μmol/kg), day 1
[15] = male, rat, in vivo, po, 64.9 mg/kg, rat 4M, 0612AR, 64.9 mg/kg (300 μmol/kg), day 30

T1 sequence (P08183 whole entry): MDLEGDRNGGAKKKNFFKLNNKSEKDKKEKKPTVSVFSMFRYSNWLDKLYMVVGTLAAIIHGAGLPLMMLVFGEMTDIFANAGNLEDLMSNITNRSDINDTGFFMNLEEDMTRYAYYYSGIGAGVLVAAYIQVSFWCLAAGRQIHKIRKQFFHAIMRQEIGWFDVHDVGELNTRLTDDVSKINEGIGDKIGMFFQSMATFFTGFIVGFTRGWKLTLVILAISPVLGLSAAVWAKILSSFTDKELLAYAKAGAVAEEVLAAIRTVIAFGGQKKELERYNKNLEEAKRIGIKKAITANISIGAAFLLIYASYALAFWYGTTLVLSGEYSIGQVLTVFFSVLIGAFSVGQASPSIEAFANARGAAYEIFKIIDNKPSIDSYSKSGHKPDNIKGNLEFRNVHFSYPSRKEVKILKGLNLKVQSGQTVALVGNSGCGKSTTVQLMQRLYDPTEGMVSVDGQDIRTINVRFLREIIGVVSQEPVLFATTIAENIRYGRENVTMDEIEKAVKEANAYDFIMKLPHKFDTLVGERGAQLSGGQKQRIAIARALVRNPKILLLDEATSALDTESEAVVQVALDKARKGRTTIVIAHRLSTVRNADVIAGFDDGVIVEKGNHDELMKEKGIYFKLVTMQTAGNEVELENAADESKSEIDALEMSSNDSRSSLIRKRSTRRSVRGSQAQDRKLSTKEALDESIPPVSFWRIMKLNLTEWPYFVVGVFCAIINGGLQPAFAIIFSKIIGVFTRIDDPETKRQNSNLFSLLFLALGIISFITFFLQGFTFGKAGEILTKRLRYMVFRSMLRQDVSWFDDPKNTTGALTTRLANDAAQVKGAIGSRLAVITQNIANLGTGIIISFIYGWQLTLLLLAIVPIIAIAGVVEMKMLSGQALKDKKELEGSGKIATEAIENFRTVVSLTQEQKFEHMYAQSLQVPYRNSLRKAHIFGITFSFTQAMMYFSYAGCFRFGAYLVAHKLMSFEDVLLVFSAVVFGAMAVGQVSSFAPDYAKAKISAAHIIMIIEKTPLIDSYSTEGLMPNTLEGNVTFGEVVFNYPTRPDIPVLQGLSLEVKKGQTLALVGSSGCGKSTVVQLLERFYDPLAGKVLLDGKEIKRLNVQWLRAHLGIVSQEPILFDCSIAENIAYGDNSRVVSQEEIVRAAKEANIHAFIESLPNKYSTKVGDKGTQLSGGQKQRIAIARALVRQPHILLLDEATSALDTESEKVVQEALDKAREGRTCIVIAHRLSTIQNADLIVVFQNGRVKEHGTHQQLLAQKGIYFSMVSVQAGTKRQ
Chain of α7 receptor (Q05941 23-502): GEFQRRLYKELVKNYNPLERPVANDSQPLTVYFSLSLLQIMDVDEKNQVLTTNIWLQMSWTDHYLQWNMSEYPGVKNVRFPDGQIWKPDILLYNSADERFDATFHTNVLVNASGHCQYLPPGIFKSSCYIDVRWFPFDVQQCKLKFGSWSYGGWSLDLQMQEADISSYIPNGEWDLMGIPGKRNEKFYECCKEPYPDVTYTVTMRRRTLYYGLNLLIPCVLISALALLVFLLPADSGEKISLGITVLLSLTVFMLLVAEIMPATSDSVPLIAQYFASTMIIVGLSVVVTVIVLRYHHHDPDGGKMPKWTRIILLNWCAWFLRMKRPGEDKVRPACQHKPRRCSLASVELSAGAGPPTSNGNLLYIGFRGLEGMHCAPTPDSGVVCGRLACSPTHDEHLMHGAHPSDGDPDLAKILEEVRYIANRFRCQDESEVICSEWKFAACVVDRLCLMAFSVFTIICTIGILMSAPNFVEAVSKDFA

c1cnc2c(c1)C[C@@]1(CN3CCC1CC3)O2 [AZD0328, (R)-Spiro[1-azabicyclo[2.2.2]octane-3,2′(3′H)-furo[2,3-b]pyridine]]
Cmax ([1]; po, highest dose, read-out: total Cmax): 31200 nM | Cmax ([1]; oral, 1.1 mg/kg, read-out: NOAEL (effect<10%) on cardiovascular function, total Cmax): 500 nM | increase in HR (rats; rat, highest dose (total Cmax 31.2 μM)): 19% | dose without CV effect (rats; rat, oral gavage): 1.1 mg/kg | duration of BP and HR increase postdose (rats; telemetered rats): increased for up to 6 h postdose. | AUC (Multiple dose PK/TK, rat; [2]): 699 ng·h/mL to 861 ng·h/mL and 3.23 µM·h to 3.98 µM·h | Cmax (Multiple dose PK/TK, rat; [2]): 251 ng/mL to 344 ng/mL and 1.16 µM to 1.59 µM | Tmax (Multiple dose PK/TK, rat; [2]): 0.5 to 1 h | AUC (Multiple dose PK/TK, rat; [3]): 2.77 µM·h to 3.96 µM·h and 599 ng·h/mL to 857 ng·h/mL | Cmax (Multiple dose PK/TK, rat; [3]): 212 to 324 ng/mL | Cmax at 7 day (Multiple dose PK/TK, rat; [3]): 981 to 1500 nM | Tmax (Multiple dose PK/TK, rat; [3]): 0.5 h | AUC (Multiple dose PK/TK, rat; [4]): 916 ng·h/mL and 7.25 µM·h | Cmax at 1 day (Multiple dose PK/TK, rat; [4]): 236 ng/mL and 1.87 µM | Tmax at 1 day (Multiple dose PK/TK, rat; [4]): 1 h | AUC (Multiple dose PK/TK, rat; [5]): 858 ng·h/mL and 6.79 µM·h | Cmax at 30 day (Multiple dose PK/TK, rat; [5]): 220 ng/mL and 1.74 µM | Tmax at 30 day (Multiple dose PK/TK, rat; [5]): 1 h | AUC (Multiple dose PK/TK, rat; [6]): 8120 ng·h/mL and 64.3 µM·h | Cmax at 1 day (Multiple dose PK/TK, rat; [6]): 984 ng/mL and 7.79 µM | Tmax at 1 day (Multiple dose PK/TK, rat; [6]): 1 h | AUC (Multiple dose PK/TK, rat; [7]): 9600 ng·h/mL and 76 µM·h | Cmax at 30 day (Multiple dose PK/TK, rat; [7]): 1420 ng/mL and 11.2 µM | Tmax at 30 day (Multiple dose PK/TK, rat; [7]): 1 h | AUC (Multiple dose PK/TK, rat; [8]): 40400 ng·h/mL and 320 µM·h | Cmax (Multiple dose PK/TK, rat; [8]): 2480 ng/mL and 19.6 µM | Tmax (Multiple dose PK/TK, rat; [8]): 1 to 3 h | AUC (Multiple dose PK/TK, rat; [9]): 42100 ng·h/mL and 333 µM·h | Cmax (Multiple dose PK/TK, rat; [9]): 2930 ng/mL and 23.2 µM | Tmax (Multiple dose PK/TK, rat; [9]): 1 h | AUC (Multiple dose PK/TK, rat; [10]): 412 ng·h/mL and 3.26 µM·h | Cmax at 30 day (Multiple dose PK/TK, rat; [10]): 154 ng/mL and 1.22 µM | Tmax at 30 day (Multiple dose PK/TK, rat; [10]): 1 h | AUC (Multiple dose PK/TK, rat; [11]): 528 ng·h/mL and 4.18 µM·h | Cmax at 1 day (Multiple dose PK/TK, rat; [11]): 189 ng/mL and 1.5 µM | Tmax at 1 day (Multiple dose PK/TK, rat; [11]): 1 h | AUC (Multiple dose PK/TK, rat; [12]): 4230 ng·h/mL and 33.5 µM·h | Cmax at 1 day (Multiple dose PK/TK, rat; [12]): 769 ng/mL and 6.09 µM | Tmax at 1 day (Multiple dose PK/TK, rat; [12]): 1 to 3 h | AUC (Multiple dose PK/TK, rat; [13]): 5630 ng·h/mL and 44.6 µM·h | Cmax at 30 day (Multiple dose PK/TK, rat; [13]): 1160 ng/mL and 9.21 µM | Tmax at 30 day (Multiple dose PK/TK, rat; [13]): 1 h | AUC (Multiple dose PK/TK, rat; [14]): 23900 ng·h/mL and 189 µM·h | Cmax (Multiple dose PK/TK, rat; [14]): 1670 ng/mL and 13.2 µM | Tmax (Multiple dose PK/TK, rat; [14]): 1 to 6 h | AUC (Multiple dose PK/TK, rat; [15]): 29300 ng·h/mL and 232 µM·h | Cmax (Multiple dose PK/TK, rat; [15]): 2780 ng/mL and 22 µM | Tmax (Multiple dose PK/TK, rat; [15]): 1 h | AUC/dose (Multiple dose PK/TK, rat; rat 1F+1M, DMR4, 2.16 mg/kg (10 μmol/kg), day 1): 0.323-0.398 | AUC/dose (Multiple dose PK/TK, rat; rat 1F+1M, DMR4, 2.16 mg/kg (10 μmol/kg), day 7): 0.277-0.396 | AUC/dose (Multiple dose PK/TK, rat; rat 4F, 0612AR, 2.16 mg/kg (10 μmol/kg), day 1): 0.725 ± 0.068 | AUC/dose (Multiple dose PK/TK, rat; rat 4F, 0612AR, 2.16 mg/kg (10 μmol/kg), day 30): 0.679 ± 0.134 | AUC/dose (Multiple dose PK/TK, rat; rat 4F, 0612AR, 15.1 mg/kg (70 μmol/kg), day 1): 0.919 ± 0.071 | AUC/dose (Multiple dose PK/TK, rat; rat 4F, 0612AR, 15.1 mg/kg (70 μmol/kg), day 30): 1.09 ± 0.13 | AUC/dose (Multiple dose PK/TK, rat; rat 4F, 0612AR, 64.9 mg/kg (300 μmol/kg), day 1): 1.07 ± 0.10 | AUC/dose (Multiple dose PK/TK, rat; rat 4F, 0612AR, 64.9 mg/kg (300 μmol/kg), day 30): 1.11 ± 0.14 | AUC/dose (Multiple dose PK/TK, rat; rat 4M, 062AR, 2.16 mg/kg (10 μmol/kg), day 30): 0.326 ± 0.084 | AUC/dose (Multiple dose PK/TK, rat; rat 4M, 0612AR, 2.16 mg/kg (10 μmol/kg), day 1): 0.418 ± 0.062 | AUC/dose (Multiple dose PK/TK, rat; rat 4M, 0612AR, 15.1 mg/kg (70 μmol/kg), day 1): 0.479 ± 0.037 | AUC/dose (Multiple dose PK/TK, rat; rat 4M, 0612AR, 15.1 mg/kg (70 μmol/kg), day 30): 0.637 ± 0.043 | AUC/dose (Multiple dose PK/TK, rat; rat 4M, 0612AR, 64.9 mg/kg (300 μmol/kg), day 1): 0.630 ± 0.083 | AUC/dose (Multiple dose PK/TK, rat; rat 4M, 0612AR, 64.9 mg/kg (300 μmol/kg), day 30): 0.773 ± 0.057 | fEPSP LTP (α7 receptor): 153 % baseline | inhibition of Pgp mediated digoxin transport (Pgp transporter): did not significantly inhibit | decrease of digoxin transport (Pgp transporter; 10.8 μg/mL (50 μM)): 11% | duration of improved SDR performance after a single dose (rhesus monkeys; four of nine monkeys, middle doses (0.0016 and 0.00048 mg/kg im)): more than one month | higher doses with no effect or transiently impaired SDR performance (rhesus monkeys; rhesus monkeys): ≥ 0.016 mg/kg | lower doses with no effect or transiently impaired SDR performance (rhesus monkeys; rhesus monkeys): ≤ 0.00016 mg/kg | percent correct responses (SDR) (rhesus monkeys; rhesus monkeys, 0.016 mg/kg): non-significant increase | effect on hippocampal LTP (FFX Sprague Dawley rats): ineffective
